Laboratory results from paper PMC6359675, “Functionalization of the Chalcone Scaffold for the Discovery of Novel Lead Compounds Targeting Fungal Infections” (Molecules, 2019).
Several values for one entry are separate records, joined by “and”; a condition that tells them apart may be missing. Equal entries are not always repeated. Where two headings read alike, the source gives them in different places.

Columns and labels:
C. tropicalis = experiment: In vitro susceptibility testing, C. tropicalis clinical isolate; format: cell-based; conditions: Candida tropicalis; clinical isolate; read-out: IC50 C. tropicalis
From the text: (§1) The yeasts included in the present study were Candida albicans ATCC 10231 (American Type Culture Collection) and a collection of yeasts recovered from a variety of clinical specimens, i.e., blood, urine, genital swabs, bronchoalveolar lavage, nail specimens, collected at the Microbiology Unit, St. Orsola Malpighi University Hospital, Bologna, Italy. The clinical strain isolates were identified by standard procedures, including colony morphology on chromogenic agar (CHROMagar Candida medium, Becton Dickinson, Heidelberg, Germany) and confirmed by MALDI Biotyper System using matrix-assisted laser desorption ionization–time of flight mass spectrometry (MALDI-TOF MS, Bruker Daltonik, GmbH, Germany).
(§2) The in vitro antifungal activity of the chalcones was evaluated by a microdilution broth method in accordance with the guidelines provided by the EUCAST Edef 7.3 [22]. Briefly, all strains were cultured on Sabauraud dextrose, then inocula, prepared at 0.5 McFarland, were diluted 1:20 in RPMI-1640 medium (Gibco®, ThermoFisher Scientific Inc., Waltham, MA, USA), containing glucose 2%, 0.3% levo-glutamine buffered to pH 7.0 with 0.165 M 3-(N-morpholino)propanesulfonic acid (MOPS) to yield 1-5 × 10^5 cells/mL. A total of 100 µL of the yeast suspension was inoculated in a 96-well microplate and incubated with 100 µL of serially 2-fold dilution of the compound in the range 200–6.25 µM. The following controls were included: yeast suspensions incubated in RPMI-1640 culture medium (positive growth control), or supplemented with dilutions of DMSO, or fluconazole (Sigma-Aldrich, St. Louis, MO, USA) as a commercial drug. To check the background turbidity of reagents and the sterility of the procedure, dilutions of each compound were incubated in RPMI-1640 culture medium, without yeast inoculum. The inoculated plate was incubated at 37 °C for 24 h, and subsequently the optical density at 630 nm was measured by the Multiskan Ascent microplate reader (Thermo Fisher Scientific Inc.). The effectiveness of the compounds was expressed as percent inhibition relative to the positive growth control when the inhibition […] the 50% at 100 µM. The IC50 value was determined by interpolation of the dose–response curves generated by plotting the percentages of growth inhibition, relative to the drug-free control (set to 100% of growth), as a function of the tested concentrations (on a logarithm scale). Statistical analysis was carried out by the nonlinear regression method using GraphPad Prism version 5.0 for Windows (GraphPad Software, San Diego, CA, USA). All assays were performed in triplicate and at least two independent experiments were carried out.

C. krusei = experiment: In vitro susceptibility testing, C. krusei clinical isolate; format: cell-based; conditions: Pichia kudriavzevii; clinical isolate; read-out: IC50 C. krusei
From the text: as §1, §2

C. neoformans = experiment: In vitro susceptibility testing, C. neoformans clinical isolate; format: cell-based; conditions: Cryptococcus neoformans; clinical isolate; read-out: IC50 C. neoformans
From the text: as §1, §2

C. albicans ATCC 10231 [1] = experiment: Agar-invasive hyphal growth (Spider agar assay); format: cell-based, Candida albicans; conditions: compounds at IC50 values, three days at 37 °C
Experimental: Aliquots (2 µL) of a suspension of C. albicans ATCC 10231 (5 × 10^5 cells/mL) were spotted onto medium in triplicate and the morphology of growing colonies was observed following three days of incubation at 37 °C. Spider agar plates without chalcones, containing DMSO, served as the control. The presence of filaments at the colony edges was determined using a light microscope under 10× magnification.

S. clavata = experiment: In vitro susceptibility testing, S. clavata clinical isolate; format: cell-based; conditions: clinical isolate; read-out: IC50 S. clavata
From the text: as §1, §2

C. utilis = experiment: In vitro susceptibility testing, C. utilis clinical isolate; format: cell-based; conditions: Williopsis jadinii; clinical isolate; read-out: IC50 C. utilis
From the text: as §1, §2

C. albicans ATCC 10231 [2] = experiment: Disruption of preformed mature biofilm (biofilm metabolic activity); format: cell-based, Candida albicans; conditions: compounds added to preformed mature biofilm; statistically significant
C. lusitaniae = experiment: In vitro susceptibility testing, C. lusitaniae clinical isolate; format: cell-based; conditions: Clavispora lusitaniae; clinical isolate; read-out: IC50 C. lusitaniae
From the text: as §1, §2

Vero cells (ATCC CCL-81) = experiment: Cytotoxicity test on Vero cells (WST8/CCK-8 cell viability); format: cell-based, African green monkey; conditions: 72 h, up to the highest concentration of 200 μM
Experimental: (§3) African green monkey kidney cells (Vero ATCC CCL-81) were cultured in Eagle’s Minimal Essential Medium (MEM) (Sigma-Aldrich), supplemented with 10% fetal bovine serum (FBS) (Carlo Erba Reagents, Milan, Italy), 100 U/mL penicillin, and 100 µg/mL streptomycin at 37 °C with 5% CO2. For experiments, cells were seeded into 96-well plates at 10^4 cells/well, and incubated at 37 °C for 24 h. Following washes with PBS, cell monolayer was incubated with 100 µL of serially 2-fold dilution of the compound in the range 200–6.25 µM. Both untreated cells and cells incubated with medium containing solvent dilutions were included in each experiment as controls.
(§4) The cell viability was assessed by a WST8-based assay according to the manufacturer’s instructions (CCK-8, Cell Counting Kit-8, Dojindo Molecular Technologies, Rockville, MD, USA). After 72 h of incubation, culture medium was removed from each well, the monolayer was washed with PBS, and 100 µL of fresh medium containing 10 µL of CCK-8 solution were added. Following a 2 h at 37 °C, the absorbance was measured at 450/630 nm; data were calculated as the percentage of the cell viability relative to the untreated controls.

[3] = as above; format: cell-based, African green monkey; conditions: African green monkey, Vero cells (ATCC CCL-81), Vero cells, mean and 95% confidence interval
Experimental: as §3, §4

C. glabrata = experiment: In vitro susceptibility testing, C. glabrata clinical isolate; format: cell-based; conditions: Nakaseomyces glabratus; clinical isolate; read-out: IC50 C. glabrata
From the text: as §1, §2

C. albicans = experiment: In vitro susceptibility testing, C. albicans clinical isolate; format: cell-based; conditions: Candida albicans; clinical isolate; mean and 95% confidence interval; read-out: IC50 C. albicans
From the text: as §1, §2

C. albicans ATCC 10231 [4] = experiment: In vitro susceptibility testing, microdilution broth (EUCAST), C. albicans control strain; format: cell-based, Candida albicans; conditions: Candida albicans; for IC50: ATCC10231, C. albicans ATCC 10231, mean and 95% confidence interval; for inhibition at 100 µM: ATCC10231, C. albicans ATCC 10231, 24 h
Experimental: as §2

C. parapsilosis = experiment: In vitro susceptibility testing, C. parapsilosis clinical isolate; format: cell-based; conditions: Lodderomyces parapsilosis; clinical isolate; read-out: IC50 C. parapsilosis
From the text: as §1, §2

R. mucilaginosa = experiment: In vitro susceptibility testing, R. mucilaginosa clinical isolate; format: cell-based; conditions: clinical isolate; read-out: IC50 R. mucilaginosa
From the text: as §1, §2

C. albicans ATCC 10231 [5] = experiment: Effect on yeast-to-hyphae transition; format: cell-based, Candida albicans; conditions: compound at IC50 value, 2 h
From the text: Blastospore and hyphae forms were observed under a light microscope.

| SMILES | IC50 (C. tropicalis) | IC50 (C. krusei) | IC50 (C. neoformans) | invasion of Spider medium (filamentation) (C. albicans ATCC 10231 [1]) | IC50 (S. clavata) | IC50 (C. utilis) | reduction of metabolism of sessile cells in mature biofilm (C. albicans ATCC 10231 [2]) | IC50 (C. lusitaniae) | toxicity on Vero cells, in words (Vero cells (ATCC CCL-81)) | CC50 at 72 h ([3]; read-out: CC50) | CC50 at 72 h ([3]; read-out: CC50 [μg/mL]) | IC50 (C. glabrata) | IC50 (C. albicans) | IC50 (C. albicans ATCC 10231 [4]; read-out: IC50) | IC50 (C. albicans ATCC 10231 [4]; read-out: IC50 [μg/mL]) | inhibition at 100 µM (C. albicans ATCC 10231 [4]) | IC50 (C. parapsilosis) | IC50 (R. mucilaginosa) | cell morphology after treatment (C. albicans ATCC 10231 [5]) |
| --- | --- | --- | --- | --- | --- | --- | --- | --- | --- | --- | --- | --- | --- | --- | --- | --- | --- | --- | --- |
| O=C(/C=C/c1cc(F)cc(F)c1)c1cc(Cl)ccc1O [Compound 5, (E)-1-(5-Chloro-2-hydroxyphenyl)-3-(3,5-difluorophenyl)prop-2-en-1-one] | > 58.9 µg/mL and > 200 µM | > 58.9 µg/mL and > 200 µM | 5.3 µg/mL and 18 µM | unable to penetrate the medium | 29.5 µg/mL and 100 µM | 29.5 µg/mL and 100 µM | < 25% | 14.1 µg/mL and 47.9 µM | did not display any toxicity | > 200 µM | > 58.9 µg/mL | > 58.9 µg/mL and > 200 µM | 29.5 µg/mL and 100 µM | 51.3 µM | 15.1 µg/mL | 62 ± 1.5% | 58.9 µg/mL and 200 µM | 22.7 µg/mL and 76.9 µM |  |
| O=C(/C=C/c1cccc(F)c1)c1cc(F)ccc1O [Compound 7, (E)-1-(5-Fluoro-2-hydroxyphenyl)-3-(3-fluorophenyl)prop-2-en-1-one] | > 200 µM and > 52 µg/mL | 100 µM and 26 µg/mL | 15.6 µM and 4.1 µg/mL | unable to penetrate the medium | 37 µM and 9.6 µg/mL | 100 µM and 26 µg/mL | < 25% | 31.7 µM and 8.2 µg/mL |  | 182 µM | 47.3 µg/mL | 100 µM and 26 µg/mL | 32.1 µM and 8.4 µg/mL | 53 µM | 13.8 µg/mL | 69 ± 12.4% | 100 µM and 26 µg/mL | 80 µM and 20.8 µg/mL | mainly formed blastospores, some rare budding cells but no hyphae |
| O=C(/C=C/c1ccc(F)cc1)c1cc(Cl)ccc1O [Compound 4, (E)-1-(5-Chloro-2-hydroxyphenyl)-3-(4-fluorophenyl)prop-2-en-1-one] | 200 µM and 55.3 µg/mL | 200 µM and 55.3 µg/mL | 27.1 µM and 7.5 µg/mL |  | 200 µM and 55.3 µg/mL | 96.7 µM and 26.8 µg/mL |  | 34.6 µM and 9.6 µg/mL | did not display any toxicity | > 200 µM | > 55.3 µg/mL | 200 µM and 55.3 µg/mL | 69.6 µM and 19.3 µg/mL | 48.9 µM | 13.5 µg/mL | 65.6 ± 3.3% | > 200 µM and > 55.3 µg/mL | 81.8 µM and 22.6 µg/mL |  |
